In patent US20170008928A1, “NOVEL PEPTIDES AND PEPTIDE DERIVATIVES AND USES THEREOF” (Novo Nordisk A/S, priority 2015, published 2017):
Read-outs that look alike come from different tables or passages of the source. Starred links: 1 amine or outer side, 2 acyl side, 3 side chain; linkers in the order of their positions; H or OH if unused. Non-standard residues stand in square brackets, D forms with d. Residues, ends and D or L forms follow the SMILES beside them. *: point of attachment. Phe(4-CH2SO3H) = N[C@@H](Cc1ccc(CS(=O)(=O)O)cc1)C(=O)O; sY = N[C@@H](Cc1ccc(OS(=O)(=O)O)cc1)C(=O)O; C18 diacid = O=C(O)CCCCCCCCCCCCCCCCC(=O)*; γGlu = O=C(O)[C@H](CCC(=O)[*:2])N[*:1]; 1Nal = N[C@@H](Cc1cccc2ccccc12)C(=O)O; NMeF = CN[C@@H](Cc1ccccc1)C(=O)O; dNMeD = CN[C@H](CC(=O)O)C(=O)O; Nle = CCCC[C@H](N)C(=O)O; AEEA = NCCOCCOCC(=O)O

What was measured:
[1] = biological target: T1, human cholecystokinin-1 receptor (CCK-1R) (Homo sapiens, UniProt P32238); test: In vitro receptor binding to CCK-1R, SPA displacement of [125I]-CCK-8s from plasma membranes
T1 construct: host or cells: 1321-N1 cells
T1 sequence (P32238 1-428): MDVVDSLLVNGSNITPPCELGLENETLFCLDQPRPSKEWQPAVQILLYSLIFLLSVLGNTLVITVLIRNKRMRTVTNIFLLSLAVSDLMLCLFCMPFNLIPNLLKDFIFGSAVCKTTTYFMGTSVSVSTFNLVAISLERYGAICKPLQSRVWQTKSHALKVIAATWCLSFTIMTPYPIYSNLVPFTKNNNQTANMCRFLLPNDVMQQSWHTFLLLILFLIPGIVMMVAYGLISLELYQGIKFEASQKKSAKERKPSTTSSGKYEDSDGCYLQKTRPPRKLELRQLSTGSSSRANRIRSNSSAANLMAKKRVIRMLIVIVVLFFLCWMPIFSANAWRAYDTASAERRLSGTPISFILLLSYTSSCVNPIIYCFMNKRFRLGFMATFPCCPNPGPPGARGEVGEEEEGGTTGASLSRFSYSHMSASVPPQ

[2] = Chemical stability compared to CCK-8s, 8 mM phosphate pH 7.4, RP-UHPLC; format: physicochemical; conditions: after two weeks at 37° C.
Experimental: The resulting samples were stored in HPLC vials at 5° C. and 37° C. for 2 weeks. The samples were analysed in the beginning of the experiment (t=0), after one week and after two weeks by RP-UHPLC with a mobile phase containing phosphate and with a gradient of acetonitrile. UV detection at 215 nm was used. Samples after one week and two weeks were analysed twice. The calculations were done as described above, and the results are summarised in Table 7 (average of two determinations).

[3] = displacement of [125I]-CCK-8s, plasma membranes of 1321-N1 cells expressing CCK-1R, read-out: IC50 (CCK-1R)

Row | IC50 [1, 3] | CCK-1R binding selectivity (IC50 (CCK-2R)/IC50 (CCK-1R)) ([1]; ratio of binding IC50 values, >1 = preference for CCK-1R) | SMILES | IC50 [1] | stability higher than the stability of CCK-8s [2]
1 | 0.13 nM |  | CCCC[C@H](NC(=O)[C@H](Cc1ccc(OS(=O)(=O)O)cc1)NC(=O)[C@H](CC(=O)O)NC(=O)COCCOCCNC(=O)COCCOCCNC(=O)CC[C@H](NC(=O)CCCCCCCCCCCCCCCCC(=O)O)C(=O)O)C(=O)NCC(=O)N[C@@H](Cc1c[nH]c2ccccc12)C(=O)N[C@@H](CCCC)C(=O)N(C)[C@H](CC(=O)O)C(=O)N[C@@H](Cc1cccc2ccccc12)C(N)=O [Example 2, 2-[2-[2-[[2-[2-[2-[[(4S)-4-Carboxy-4-(17-carboxyheptadecanoylamino)butanoyl]amino]ethoxy]ethoxy]acetyl]amino]ethoxy]ethoxy]acetyl-Asp-sTyr-Nle-Gly-Trp-Nle-DMeAsp-1Nal-amide] ({C18 diacid-γGlu-AEEA-AEEA}-D[sY][Nle]GW[Nle][dNMeD][1Nal]-NH2) |  | 
2 |  |  | CCCC[C@H](NC(=O)[C@H](Cc1ccc(CS(=O)(=O)O)cc1)NC(=O)[C@H](CC(=O)O)NC(=O)COCCOCCNC(=O)COCCOCCNC(=O)CC[C@H](NC(=O)CCCCCCCCCCCCCCCCC(=O)O)C(=O)O)C(=O)NCC(=O)N[C@@H](Cc1c[nH]c2ccccc12)C(=O)N[C@@H](CCCC)C(=O)N(C)[C@H](CC(=O)O)C(=O)N(C)[C@@H](Cc1ccccc1)C(N)=O [Example 3, 2-[2-[2-[[2-[2-[2-[[(4S)-4-Carboxy-4-(17-carboxyheptadecanoylamino)butanoyl]amino]ethoxy]ethoxy]acetyl]amino]ethoxy]ethoxy]acetyl-Asp-Phe(4-sulfomethyl)-Nle-Gly-Trp-Nle-DMeAsp-MePhe-amide] ({C18 diacid-γGlu-AEEA-AEEA}-D[Phe(4-CH2SO3H)][Nle]GW[Nle][dNMeD][NMeF]-NH2) | 0.26 nM | about 50%
3 | 0.072 nM | 5100 | CCCC[C@H](NC(=O)[C@H](Cc1c[nH]c2ccccc12)NC(=O)CNC(=O)[C@H](CC(C)C)NC(=O)[C@H](Cc1ccc(OS(=O)(=O)O)cc1)NC(=O)[C@H](CC(=O)O)NC(=O)[C@H](CO)NC(=O)[C@H](CO)NC(=O)CNC(=O)[C@H](CO)NC(=O)[C@H](CO)NC(=O)CNC(=O)CCCCCCCCCCCCCCCCC(=O)O)C(=O)N(C)[C@H](CC(=O)O)C(=O)N(C)[C@@H](Cc1ccccc1)C(N)=O [Example 29, 17-Carboxyheptadecanoyl-Gly-Ser-Ser-Gly-Ser-Ser-Asp-sTyr-Leu-Gly-Trp-Nle-DMeAsp-MePhe-amide] ({C18 diacid}-GSSGSSD[sY]LGW[Nle][dNMeD][NMeF]-NH2) |  | 
